Where a name gives a salt, the structure may show the parent alone.
Legend:
Matek skin equivalents = assay: stratum corneum thickness and cohesion in skin equivalents (histology); type: cell-based
Experimental: FIG. 1 illustrates the condition of stratum corneum thickness under different cholesterol sulfate treatment regimens, as described in Example I: (A) control (no treatment); (B) 1% ethanol vehicle control; (C) cholesterol sulfate, 0.01 μg/ml; (D) cholesterol sulfate, 0.1 μg/ml; (E) cholesterol sulfate, 1 μg/ml; (F) cholesterol sulfate 10 μg/ml.
This example illustrates the ability of cholesterol sulfate to retard desquamation and maintain stratum corneum thickness.
Matek skin equivalents are obtained and prepared for use in accordance with the supplier's protocol. Equilibrated skins are treated topically with dilutions of cholesterol sulfate. Cholesterol sulfate is solubilized 1 mg/ml in ethanol, and serially diluted 10-fold to yield doses of 0.01, 0.1, 1 and 10 μg/ml. Each dose is added topically to an equivalent, using a 100 μl volume. Treatment is repeated daily along with media replacement over a three day period. One sample is treated with 1% ethanol, representing a vehicle control. Following treatment, equivalents are fixed according to standard protocol, and sent for histological preparations. FIGS. 1A-F show stained sections of the two controls plus the treatment samples. […] Some compaction is seen in the ethanol treated sample, which is believed due to dehydration of the sample combined with lipid removal.

[1] = test system: skin (back of hand), stratum corneum; assay: skin flakiness by D-Squame Discs Method and Image Analysis; type: in vivo, human; settings: 0.5% cholesterol sulfate in a water and oil emulsion base, right hand, twice a day
Experimental: A study is conducted to determine the effect of cholesterol sulfate on skin flakiness, as an indicator of its effect in reducing desquamation. Fifteen subjects between the ages of 21 and 65 years are selected for the study. The subjects report for the study without moisturizers or any other products on their hands and their baseline measurements are taken. The subjects are given a product containing 0.5% cholesterol sulfate in a water and oil emulsion base to take home and self-administer on their right hands only, twice a day in the morning after washing and in the evening at least 15 minutes before bedtime for four weeks. The left hand serves as the untreated control site. The subjects are only allowed to use the test product and specifically log its use in a daily diary. At the end of two and four weeks the subjects return for testing without applying the product for at least 12 hours and they are re-evaluated under the same conditions.
Evaluation of flakiness is determined via the D-Squame Discs Method and Image Analysis. Briefly, four D-Squame discs are firmly pressed on the back of each hand with hand held uniform pressure device and removed by gently pulling away from the skin. […] Desquamation is evaluated from the D-Squame discs via the image analyzer. […]
An OPTIMA image analyzer is used to evaluate skin flakiness. […] The average Gray Value corresponding to the sample density is measured. […]

Q: How did the “organization and cohesion of the stratum corneum (stained sections)” value (Matek skin equivalents; 0.01, 0.1, 1 and 10 μg/ml, 100 μl topically, daily over three days, vs media control, effect increases with amount) turn out when CC(C)CCC[C@@H](C)[C@H]1CC[C@H]2[C@@H]3CC=C4C[C@@H](OS(=O)(=O)O)CC[C@]4(C)[C@H]3CC[C@]12C [cholesterol sulfate] was run?
A: Its value is “gradual increase in organization and cohesion of the stratum corneum”.

Q: What about the “thickness of the layers of the stratum corneum” value (Matek skin equivalents; application to skin cells, FIGS. 1C-F (0.01-10 μg/ml)) of the same compound?
A: The value was “distinct, dose-dependent, increase in the thickness”.

Q: And the “decrease in flakiness relative to baseline” value ([1]; after 4 weeks)?
A: The value was 24.1%.

Q: What about the “decrease in flakiness relative to baseline” value ([1]; after two weeks) of the same compound?
A: The value was 22.5%.

— patent US20040028639A1, “Cholesterol sulfate compositions for enhancement of stratum corneum function” (priority 1999, published 2004)
